How the values were obtained:
Format in all cases: cell-based
[1] = tested on: cells in which folA is regulated by PBAD, PLtetO-1, or Plac/ara-1; test: MIC by microbroth dilution in E. coli under-expressing folA; conditions: for MIC with decreasing regulator level: PLtetO-1 or Plac/ara-1, regulators L-arabinose, anhydrotetracycline, IPTG, FIG. 3
Method: In another example, the wild-type native folA gene was knocked out, and a wild-type copy of the gene folA, which encodes the protein dihydrofolate reductase, was placed under ectopic expression in the yibD locus under regulation by PBAD with the regulator, L-arabinose. Dihydropteroate synthetase, the gene product of […], catalyzes the enzymatic reaction two steps before dihydrofolate reductase in the folate biosynthetic pathway.
Methods. […] IPTG was added to a final concentration of 0.1 mM and anhydrous-tetracycline was added to a final concentration of 100 ng/ml to the culture media for routine growth of GTC-EC#313 and GTC-EC#346, respectively.
The specificity and sensitivity of the resultant colonies to added drugs were followed by measuring the minimal inhibitory concentration (MIC) of trimethoprim, sulfamethozasone, phosphomycin and D-cycloserine at varying regulator levels. This was performed according to NCCLS (National Center for Clinical Laboratory Standards) recommendations(NCCLS, 1997, METHODS FOR DILUTION ANTIMICROBIAL SUSCEPTIBILITY TESTS FOR BACTERIA THAT GROW AEROBICALLY, 4th ed.; approved standard. NCCLS document M7-A4. NCCLS, Wayne, Pa.), in 100 μl volume in 96-well format, with serial two-fold dilutions of drug concentration.

[2] = tested on: B. subtilis NO-347 (BD170 thrC::Pspac-murA kanR ΔmurA::CmR); test: MIC by microbroth dilution in B. subtilis under-expressing murA; conditions: IPTG 0-0.1 mM, compared to the control strain, FIG. 10
Method: Materials and Methods. The materials are the same as discussed above. Plasmids are listed in Table 4 B. subtilis strains were routinely grown in LB media or on LB agar plates containing 1.5% agar (Sambrook et al., MOLECULAR CLONING: A LABORATORY MANUAL, 2nd ed., Cold Spring Harbor Laboratory Press, 1989). MIC determination is performed using microbroth dilution-cultures grown in Mueller Hinton broth in 96-well microtiter plates purchased from Nunc (Plates—Cat. No. 262162; Lids—Cat. No. 264122). When required, media were supplemented with 5 μg/ml chloramphenicol or 10 μg/ml kanamycin. IPTG was added to culture media at a final concentration of 0.05 mM for routine culture growth of B. subtilis NO-347 (BDI70 thrC::Pspac-murA kan^R ΔmurA::Cm^R), which is dependent on IPTG for growth.
The endogenous murA gene in NO-360 was deleted by allelic replacement as follows (see FIG. 9). DNA fragments flanking the 5′ and 3′ ends of the murA gene were amplified from B. subtilis 168 genomic DNA using primer pairs KO mura F1+R2 and KO murA F2+R1, respectively. The 5′ and 3′ flanking fragments were linked to the Cm^R gene from pEVP3 using the cross-over PCR technique with the primer pair KO mura F1+R1. The resulting PCR product (shown in FIG. 9B) was used to transform naturally competent B. subtilis NO-360. Cm^R clones were selected in the presence of 0.01 mM and 0.05 mM IPTG. Allelic replacement of murA in Cm^R clones was verified by PCR. Strain NO-347 (BD170 thrC::Pspac-murA Kan^R ΔmurA::Cm^R) was chosen for MIC determinations for phosphomycin in presence of various concentrations of the regulator IPTG.
MIC determinations. Determination of minimum inhibitory concentration (MIC) for phosphomycin, novobiocin, erythromycin and trimethoprim lactate were performed in 96-well microliter plates using the microbroth dilution technique as described in NCCLS. 1997. Methods for dilution antimicrobial susceptibility tests for bacteria that grow aerobically-fourth edition; approved standard. NCCLS document M7-A4. NCCLS, Wayne, Pa. For MIC determinations using strain NO-347, various concentrations (0-0.1 mM) were added to the media. Growth was quantitated by OD600 measurements using a SpectroMax 250 plate reader (Molecular Devices).

[3] = tested on: E. coli MC1061, Ec211, Ec261, Ec239, Ec238; test: Transformation selection: growth on drug plates of strains over-expressing folA or murA; conditions: for growth on MHB plates supplemented with drug: 5 μg/ml trimethoprim or 25 μg/ml phosphomycin, no L-arabinose, all strains, FIG. 15
Source text: Methods. The genes folA, and murA were amplified from the genomic DNA of E. coli. Each gene was independently cloned in frame into pBAD/Myc-HisB vector, such that expression of the gene is under the regulation of the promoter PBAD. Hexahistidine encoding tags were incorporated into the 3′ end of the gene encoding the C-terminus of the protein through primer design. The construct introduced into the host cells of E. coli MC1061, resulting in Ec211 (construct with folA) and Ec261 (construct with murA).
The entire vector region (araC, PBAD, folA or murA, ampicillin resistance gene) of the above two constructs, but minus the origin, was PCR amplified through primer pairs homologous to regions flanking the origin. The PCR products were then linked at their 5′ ends to the 1 kb region upstream of yibD locus, and linked at their 3′ ends to the 1 kb region downstream of E. coli yibD locus (in effect, replacing yibD) by “crossover PCR” (Kim et al., 1996 Biotechniques 20: 954-5). The linear DNA product was gel purified and introduced into competent and recombinogenic MC1061. Recombinogenic ability was supplied by the red/gam function of plasmid pTP223.
Ec211, […], Ec238, Ec239, and MC1061 were freshly streaked onto Mueller Hinton Broth (MHB) plates. After an overnight incubation at 37° C., they were streaked into different segments onto different selection plates in the order of MHB supplemented with 5 μg/ml trimethoprim, MHB supplemented with 5 μg/ml trimethoprim and 0.1% L-arabinose, MHB supplemented with 25 μg/ml phosphomycin, MHB supplemented with 25 μg/ml phosphomycin and 0.1% L-arabinose, MHB supplemented with 0.1% L-arabinose, and finally plain MHB plates. The plates are 10 cm circular plates filled with 30 ml of media and divided into 6 equal segments. MC1061 was streaked in the first segment, Ec211 in second, Ec261 in third, Ec239 in fourth, Ec238 in fifth and the sixth segment was left blank.

Structure (SMILES) | MIC with decreasing regulator level [1] | sensitivity (MIC) on regulated under-expression of murA [2] | growth on MHB plates supplemented with drug [3] | growth on MHB plates with drug and L-arabinose (over-expression rescue) ([3]; 25 μg/ml phosphomycin and 0.1% L-arabinose, Ec261 (multiple copies of murA) and Ec238 (two copies of murA)) | MIC with decreasing regulator (L-arabinose) level ([1]; FIG. 5) | growth on MHB plates with drug and L-arabinose (over-expression rescue) ([3]; 5 μg/ml trimethoprim and 0.1% L-arabinose, Ec211 (multiple copies of folA, PBAD))
C[C@@H]1O[C@@H]1P(=O)(O)O [phosphomycin] | relatively unchanged | increased sensitivity | Nothing grew | grew up |  | 
COc1cc(Cc2cnc(N)nc2N)cc(OC)c1OC [trimethoprim] | decreases | does not affect sensitivity | Nothing grew |  | decreases | the only strain that grew up
